Measurements published in patent US20130283404A1, “EPIGENETICS IN AUTOIMMUNITY” (The Regents of the University of Michigan, priority 2012, published 2013).

How the values were obtained:
Type in all cases: cell-based, human
[1] = tested on: X chromosome MicroRNA; assay: Genome-wide qPCR miRNA expression profiling of 5-azaC treated CD4+ T cells; conditions: 72 hrs; for LET-7f-2 Fold change (5AzaC/No 5Aza): table line 4
Method: (§1) For in vitro demethylation assay, isolated CD4+ cells were cultured with 5 μM 5-AzaC for 72 hours. The cells were then treated (restimulated) or not with 5 ng/ml PMA and 500 ng/ml ionomycin or not for an additional 6 hr, and CD4+ cells were recovered and washed 2 times with PBS. Total RNA including miRNAs was isolated using miRNeasy kit (Qiagen) for miRNA and mRNA expression analysis. Genomic DNA was isolated using Qiagen DNeasy Blood & Tissue Kit. (Hewagama, 2009; Lu, 2007; Quddus, 1993; herein incorporated by reference in their entireties).
Genome-wide qPCR miRNA expression profiling was performed using (System Biosciences (SBI), Cat# RA660A-1) profiler. Briefly, 800 ng totals RNA containing miRNA was converted to complementary DNA with the QuantiMir kit, according to the manufacturer protocol. Real time PCR in 384 well format using miRNA-specific primers was performed using ABI 7900 real-time PCR system at University of Michigan microarray or sequencing core facilities. Resulting data was analyzed by using Human miRNome profiler software provided by SBI.
To identify methylation sensitive […], miRNA expression profiles were compared between 5-AzaC treated CD4+ cells and non-treated controls from healthy men and women. Differentially expressed miRNAs were identified. Then the X chromosome encoded miRNA's increased by 5-azaC in women, compared to men were identified.
Experiments were conducted during the development of embodiments of the present invention to identify X-linked miRNA's increasing more in experimentally demethylated T cells from women than men and also overexpressed in women relative to men with active lupus. The human X chromosome encodes 128 miRNA while the Y chromosome encodes only 15 (Ensembl release 65—December 2011 © WTSI/EBI WTSI/EBI). PBMC from the peripheral blood of healthy men and healthy women ages 23-35 were stimulated with PHA and treated with 5-azaC as before. 72 hrs later CD4+ T cells were purified and miRNA's surveyed using PCR arrays detecting 80 X chromosome and 824 autosomal miRNAs but no Y miRNA's.

[2] = tested on: OGT; assay: OGT mRNA by RT-PCR in 5-azaC treated CD4+ T cells; conditions: 72 hours, restimulated with PMA and ionomycin, more in women than in men
Method: as §1
(§2) Up to 1000 ng total RNA from CD4+ T cells was transcribed into cDNA using Transcriptor First Strand cDNA synthesis kit (Roche) according to the manufacture's instruction. The cDNA was then subjected to real-time PCR using a Rotor-Gene 3000 thermocycler (Corbett). Roche (Basle) FastStart universal SYBR green master (Roche) mix containing 1 μl template cDNA and 0.5 μM forward and reverse primers in a total volume of 20 μl was annealed at 56° C. for a total of 40 cycles. The fold change of expression was calculated using ACTB and 18sRNA as internal reference genes.
(§3) The sex-specific differences in gene expression were confirmed in experimentally demethylated CD4+ T cells from an additional 9 pairs of healthy men and women. […] CD4+ T cells were then purified using magnetic beads, RNA isolated, and OGT and CXCR3 mRNA levels quantitated by RT-PCR. […]

[3] = tested on: CXCR3; assay: CXCR3 mRNA by RT-PCR in 5-azaC treated CD4+ T cells; conditions: 72 hours, restimulated with PMA and ionomycin, more in women than in men
Method: as §1, §2, §3

[4] = tested on: OGT; assay: OGT protein by immunoblotting in 5-azaC treated CD4+ T cells; conditions: CD4+ T cells from women but not men, 72 h
Method: (§4) CD4 ? T cell CXCR3 levels were measured by flow cytometry using antibodies from Santa Cruz Biotechnology. OGT was measured by solubilizing bead-purified CD4 ? T cells, fractionating the lysates by electrophoresis, transferring the proteins to nitrocellulose membranes, then probing with anti-OGT antibodies (Abcam). CBL protein levels were measured by immunoblotting with anti-CBL antibody (BD Biosciences) and approaches similar to OGT. Protein bands were visualized using an ECL chemiluminescence detection system, then scanned and quantified with ImageQuant 5.2 software. Values were normalized to b-actin and levels expressed relative to non-stimulated CD4 ? T cells. (Basu, 2009; Lu, 2007, Gorelik, 2012; herein incorporated by reference in their entireties).
PBMC from N healthy men and women were stimulated with PHA, treated with 5-azaC, and 72 hours later restimulated with PMA and ionomycin as for an additional 6 hours as before. CD4+ T cells were isolated and OGT levels compared by immunoblotting.

[5] = tested on: CXCR3; assay: CXCR3 protein by immunoblotting and flow cytometry on 5-azaC treated CD4+ T cells; conditions: for CXCR3 MFI: mean±SEM
Method: as §4
CXCR3 protein levels were similarly compared on 5-azaC treated CD4+ T cells with and without restimulation using immunoblotting and flow cytometry. In contrast to OGT, using untreated and 5-azaC treated CD4+ T cells from male-female pairs, no increase in CXCR3 protein was observed (CXCR3MFI: female 320+91, male 316+108, mean±SEM) despite the increase in CXCR3 mRNA in the women.

[6] = tested on: OGT regulatory elements; assay: Methylcytosine affinity purification (MeCAP) of OGT regulatory region in CD4+ T cells; conditions: CD4+ T cells from women but not men
Method: (§5) Genomic DNA from isolated CD4+ T cells (˜3×10^6), was extracted using Qiagen DNeasy Blood & Tissue Kit. 3-5 μg isolated DNA was sonicated to average of ˜500 bp with a Covaris DNA shearing system at UM sequencing core. Fragments were size-evaluated using an Agilent 2100 Bioanalyzer. Approximately 400 ng sonicated DNA was subjected to MeCAP experiments using Active Motif METHYLCOLLECTOR Ultra Kit according to the manufacturer's instructions. DNA fragments from the methylation-enriched fraction were purified using QIAquick PCR Purification Kit (Qiagen). MeCAP enriched and reference input samples were quantitated using quantitative real time PCR(RT-qPCR) with primers designed for specific regions flanking the putative transcription start site of the gene promoters. Differentially methylated regions between patient and normal healthy controls were identified by comparing % enrichment (relative to input) of the 500 bp window of methylated fragments.
(§6) The overexpression of OGT and CXCR3 in 5-azaC treated CD4+ T cells from women relative to men is consistent with demethylation of regulatory regions on their silenced X chromosome. […]

[7] = tested on: CXCR3 regulatory elements; assay: Methylcytosine affinity purification (MeCAP) of CXCR3 regulatory region in CD4+ T cells; conditions: CD4+ T cells from women
Method: as §5, §6

[8] = tested on: miR-98/Let 7-f2 gene cluster; assay: Methylation of regulatory regions 5' to the miR-98/Let 7-f2 gene cluster in CD4+ T cells; conditions: T cells from women but not men
Method: as §5
Methylation of potential regulatory regions 5′ to the miR-98/Let 7-f2 gene cluster was compared in experimentally demethylated CD4 ? T cells from women relative to men, and in CD4 ? T cells from women with active lupus.

In the case of Nc1ncn([C@@H]2O[C@H](CO)[C@@H](O)[C@H]2O)c(=O)n1 [5-azaC], the “MIR-98 Fold change (5AzaC/No 5Aza)” value ([1]; Female CD4+ T cells) is reported as 1.7 ± 0.2, the “MIR-106a Fold change (5AzaC/No 5Aza)” value ([1]; Female CD4+ T cells) is reported as 5.2 ± 1.5 and the “MIR-188(3p) Fold change (5AzaC/No 5Aza)” value ([1]; Female CD4+ T cells) is reported as 12.7 ± 3.0. The “MIR-421 Fold change (5AzaC/No 5Aza)” value ([1]; Female CD4+ T cells) was 17.4 ± 5.0, the “MIR-424 Fold change (5AzaC/No 5Aza)” value ([1]; Female CD4+ T cells) was 2.2 ± 0.5 and the “MIR-450a Fold change (5AzaC/No 5Aza)” value ([1]; Female CD4+ T cells) was 2.4 ± 0.7. The “MIR-450b Fold change (5AzaC/No 5Aza)” value ([1]; Female CD4+ T cells) was 14.3 ± 4.4, the “MIR-503 Fold change (5AzaC/No 5Aza)” value ([1]; Female CD4+ T cells) was 14.3 ± 4.4 and the “MIR-508(3p) Fold change (5AzaC/No 5Aza)” value ([1]; Female CD4+ T cells) was 4.2 ± 1.1. The “LET-7f-2 Fold change (5AzaC/No 5Aza)” value ([1]; Female CD4+ T cells) was 3.8 ± 1.2, the “MIR-98 Fold change (5AzaC/No 5Aza)” value ([1]; Male CD4+ T cells) was 1.4 ± 0.2 and the “MIR-106a Fold change (5AzaC/No 5Aza)” value ([1]; Male CD4+ T cells) was 1.1 ± 0.4. For the same compound, the “MIR-188(3p) Fold change (5AzaC/No 5Aza)” value ([1]; Male CD4+ T cells) was 4.1 ± 2.1, the “MIR-421 Fold change (5AzaC/No 5Aza)” value ([1]; Male CD4+ T cells) was 7.8 ± 3.7 and the “MIR-424 Fold change (5AzaC/No 5Aza)” value ([1]; Male CD4+ T cells) was 1.1 ± 0.3. For the same compound, the “MIR-450a Fold change (5AzaC/No 5Aza)” value ([1]; Male CD4+ T cells) was 1.1 ± 0.8, the “MIR-450b Fold change (5AzaC/No 5Aza)” value ([1]; Male CD4+ T cells) was 3.8 ± 1.8 and the “MIR-503 Fold change (5AzaC/No 5Aza)” value ([1]; Male CD4+ T cells) was 3.8 ± 1.8. For the same compound, the “MIR-508(3p) Fold change (5AzaC/No 5Aza)” value ([1]; Male CD4+ T cells) was 1.1 ± 1.3, the “LET-7f-2 Fold change (5AzaC/No 5Aza)” value ([1]; Male CD4+ T cells) was 0.5 ± 0.2 and the OGT transcripts [2] was “increases”. For the same compound, the CXCR3 transcripts [3] was “increases”, the OGT protein [4] was “increases” and the “CXCR3 MFI” value ([5]; female CD4+ T cells) was 320+91. The “CXCR3 MFI” value ([5]; male CD4+ T cells) was 316+108, the CXCR3 protein ([5]; untreated and 5-azaC treated CD4+ T cells from male-female pairs) was “no increase” and the “methylation of region −412 to −88 5′ to OGT transcription start site” value [6] was “significant demethylation”. The “methylation of region −1567 to −1067 5′ to the CXCR3 transcription start site” value [7] was “significant decrease” and the “methylation of regulatory regions 5′ to the miR-98/Let 7-f2 gene cluster” value [8] was “significantly demethylates”.
